Measurements reported in US8883963B2 (Cadila Healthcare Limited, priority 2007, dated 2014).

How the values were obtained:
[1] = Stability in simulated gastric fluid; type: in vitro ADME; settings: 2 μM peptidomimetic, simulated gastric fluid pH 1.5, 37° C.; for half-life at 2 μM: read-out: half-life (t1/2) when incubated with simulated gastric fluid
Method: (§1) Reactions were terminated by the addition of TFA/H2O (15 mL, 10% (v/v)). […] The column was equilibrated with TFA/H20, at a flow rate of 1 mL/min.

[2] = Stability in simulated intestinal fluid; type: in vitro ADME; settings: 2 μM peptidomimetic, simulated intestinal fluid pH 7.5, 37° C.; for half-life at 2 μM: read-out: half-life (t1/2) when incubated with simulated intestinal fluid
Method: as §1

DPP IV = DPP IV (Homo sapiens, UniProt P27487); assay: Stability against DPP IV enzyme; type: in vitro ADME; settings: 37° C.; for % degradation of peptidomimetics in 24 h when incubated with DPP-IV enzyme: 2 μM peptidomimetic
Sequence of DPP IV (P27487 whole entry, species assumed): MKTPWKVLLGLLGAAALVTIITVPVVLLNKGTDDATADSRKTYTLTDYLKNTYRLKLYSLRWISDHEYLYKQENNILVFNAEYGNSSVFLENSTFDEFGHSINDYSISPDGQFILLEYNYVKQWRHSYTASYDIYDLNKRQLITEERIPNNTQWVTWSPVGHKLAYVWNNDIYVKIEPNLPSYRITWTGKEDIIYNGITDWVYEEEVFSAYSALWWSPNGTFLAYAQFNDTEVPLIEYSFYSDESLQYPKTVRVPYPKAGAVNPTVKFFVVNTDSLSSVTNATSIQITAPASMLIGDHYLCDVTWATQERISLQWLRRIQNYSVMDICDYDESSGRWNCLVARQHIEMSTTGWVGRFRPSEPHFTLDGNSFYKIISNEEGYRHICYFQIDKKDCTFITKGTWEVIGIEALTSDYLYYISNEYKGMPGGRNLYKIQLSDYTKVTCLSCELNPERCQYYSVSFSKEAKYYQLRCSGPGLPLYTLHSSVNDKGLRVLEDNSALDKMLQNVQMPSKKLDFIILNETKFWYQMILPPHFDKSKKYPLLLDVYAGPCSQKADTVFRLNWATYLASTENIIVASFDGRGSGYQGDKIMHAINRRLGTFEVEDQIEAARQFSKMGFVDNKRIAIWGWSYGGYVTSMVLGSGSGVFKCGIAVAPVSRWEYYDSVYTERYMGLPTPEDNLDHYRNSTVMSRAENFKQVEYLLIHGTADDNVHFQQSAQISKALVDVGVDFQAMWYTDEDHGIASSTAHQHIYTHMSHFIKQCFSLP
Method: as §1

[3] = tested on: RIN5F (Rat Insulinoma) cells; assay: In vitro glucose-dependent insulin secretion (RIN5F cell assay screening protocol); type: cell-based; settings: 16.7 mM glucose load
[4] = Stability in human plasma; type: in vitro ADME; settings: 2 μM peptidomimetic, pooled human plasma, 37° C.
Method: as §1

human glucagon receptor = molecular target: T1, human glucagon receptor (Homo sapiens, UniProt P47871); assay: In vitro human glucagon antagonist activity (inhibition of cAMP production) in CHO/human glucagon R cells; type: cell-based; settings: with saturated concentration of glucagon peptide
T1 construct: The full-length cDNA was cloned in pcDNA3.1 (Invitrogen); expressed in transfected cells
T1 sequence (P47871 26-477): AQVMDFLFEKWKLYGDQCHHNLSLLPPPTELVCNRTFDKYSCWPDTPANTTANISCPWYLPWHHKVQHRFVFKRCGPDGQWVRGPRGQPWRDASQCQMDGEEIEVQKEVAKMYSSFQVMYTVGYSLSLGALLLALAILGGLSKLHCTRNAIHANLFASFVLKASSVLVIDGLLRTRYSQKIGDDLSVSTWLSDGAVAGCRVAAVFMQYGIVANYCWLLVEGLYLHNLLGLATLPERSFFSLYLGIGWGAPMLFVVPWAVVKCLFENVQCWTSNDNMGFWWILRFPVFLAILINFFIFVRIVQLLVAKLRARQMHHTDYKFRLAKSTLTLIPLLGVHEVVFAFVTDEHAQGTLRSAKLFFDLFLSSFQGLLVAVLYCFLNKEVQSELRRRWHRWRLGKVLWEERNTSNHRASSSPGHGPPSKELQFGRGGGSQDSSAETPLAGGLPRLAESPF

[5] = Stability in liver microsomes; type: in vitro ADME; settings: 2 μM peptidomimetic, human liver microsomes, 37° C.; for half-life at 2 μM: pH 7.8, read-out: half-life (t1/2) when incubated with liver microsomes
Method: as §1

SMILES | % degradation of peptidomimetics in 24 h when incubated with simulated gastric fluid [1] | half-life at 2 μM [1] | % degradation of peptidomimetics in 24 h when incubated with simulated intestinal fluid [2] | half-life at 2 μM [2] | % degradation of peptidomimetics in 24 h when incubated with DPP-IV enzyme (DPP IV) | Insulin secretion ([3]; 0.1 nM test compd.) | Insulin secretion ([3]; 1 nM test compd.) | Insulin secretion ([3]; 10 nM test compd.) | half-life (t1/2) when incubated with human plasma [4] | % degradation of peptidomimetics in 24 h when incubated with human plasma [4] | Human Glucagon receptor antagonistic activity shown as inhibition of cAMP production of Glucagon peptide (human glucagon receptor; 1 nM test compound) | Human Glucagon receptor antagonistic activity shown as inhibition of cAMP production of Glucagon peptide (human glucagon receptor; 10 nM test compound) | Human Glucagon receptor antagonistic activity shown as inhibition of cAMP production of Glucagon peptide (human glucagon receptor; 100 nM test compound) | Human Glucagon receptor antagonistic activity shown as inhibition of cAMP production of Glucagon peptide (human glucagon receptor; 1 μM test compound) | Human Glucagon receptor antagonistic activity shown as inhibition of cAMP production of Glucagon peptide (human glucagon receptor; 10 μM test compound) | % degradation of peptidomimetics in 24 h when incubated with liver microsomes [5] | half-life at 2 μM [5] | further results
CCc1cc(OC)ccc1-c1ccc(CC(NC(=O)[C@H](CC(=O)O)NC(=O)[C@H](CO)NC(=O)[C@@H](NC(=O)[C@H](Cc2ccccc2)NC(=O)[C@@H](NC(=O)CNC(=O)C(CCC#N)NC(=O)C(C)(C)NC(=O)[C@@H](N)Cc2c[nH]cn2)[C@@H](C)O)[C@@H](C)O)C(=O)NC(CCCc2cccc(Cl)c2)C(N)=O)cc1 (single isomer, unassigned) [compound 31] | 100% | 30 min | 100% | 30 min | 76% | 16.8 ± 0.20 pg/µg/h | 22.7 ± 0.29 pg/µg/h | 36.6 ± 0.31 pg/µg/h | (9) h | 78% | 6 ± 0.02 pmol/ml/μg prt | 5 ± 0.03 pmol/ml/μg prt | 2 ± 0.61 pmol/ml/μg prt | 0 pmol/ml/μg prt | 0 pmol/ml/μg prt | 100% | 30 min | 
CCc1cc(OC)ccc1-c1ccc(CC(NC(=O)[C@H](CC(=O)O)NC(=O)[C@H](CO)NC(=O)[C@@H](NC(=O)[C@H](Cc2ccccc2)NC(=O)[C@@H](NC(=O)CNC(=O)C(CCC#N)NC(=O)C(C)(C)NC(=O)[C@@H](N)Cc2c[nH]cn2)[C@@H](C)O)[C@@H](C)O)C(=O)NC(CCCc2ccc(F)cc2F)C(N)=O)cc1 (single isomer, unassigned) [compound 78] | 100% | 30 min | 100% | 30 min | 70% | 16.6 ± 0.41 pg/µg/h | 22.9 ± 0.32 pg/µg/h | 36.7 ± 0.11 pg/µg/h | (9) h | 71% | 22 ± 0.03 pmol/ml/μg prt | 21 ± 0.05 pmol/ml/μg prt | 20 ± 0.07 pmol/ml/μg prt | 18 ± 0.04 pmol/ml/μg prt | 18 ± 0.03 pmol/ml/μg prt | 100% | 30 min | 
CCc1cc(OC)ccc1-c1ccc(CC(NC(=O)[C@H](CC(=O)O)NC(=O)[C@H](CO)NC(=O)[C@@H](NC(=O)C(C)(Cc2ccccc2F)NC(=O)[C@@H](NC(=O)CNC(=O)C(CCC#N)NC(=O)C(C)(C)NC(=O)[C@@H](N)Cc2c[nH]cn2)[C@H](C)O)[C@H](C)O)C(=O)N(C)C(CCCc2ccccc2F)C(N)=O)cc1 (single isomer, unassigned) [compound 132] | 14% |  | 45% |  | 75% | 13.1 ± 0.11 pg/µg/h | 14.9 ± 0.17 pg/µg/h | 28.8 ± 0.44 pg/µg/h |  | 77% | 15 ± 0.11 pmol/ml/μg prt | 12 ± 0.13 pmol/ml/μg prt | 8 ± 0.09 pmol/ml/μg prt | 4 ± 0.01 pmol/ml/μg prt | 2 ± 0.08 pmol/ml/μg prt | 81% | 60 min | half-life (t1/2) when incubated with simulated gastric fluid [1]: (8) h; half-life (t1/2) when incubated with simulated intestinal fluid [2]: (6) h; half-life at 2 μM (DPP IV; DPP IV enzyme, pH 7.8, 2 μM peptidomimetic, read-out: half-life (t1/2) when incubated with DPP-IV enzyme): 540 min; half-life at 2 μM ([4]; pH 7.8, read-out: half-life (t1/2) when incubated with human plasma): 480 min
